# In US20040047823A1, “Use of ergothioneine and/or its derivatives as an anti-pollution agent” (priority 2003, published 2004):
# System: human keratinocytes
# Assay: Protective effect against ozone-induced peroxides in human keratinocytes (2,7-dichlorofluorescine diacetate / DCF fluorescence)
# Format: cell-based
# Conditions: for % fluorescence observed ±SEM, expressed as % relative to the unprotected controls: ergothioneine 1 mM (24 h pretreatment at 0.5 mM), n=4; for drop in induced stress: ergothioneine 1 mM
# Description: In a first stage, human keratinocytes obtained from plastic surgeries, inoculated beforehand on D-3 into a 48-well dish at a rate of 25 000 cells/cm^2, are pretreated with ergothioneine dissolved in the culture medium for 24 hours, at a final concentration of 0.5 mM. A marker, 0,2,7-dichlorofluorescine diacetate, is then incorporated: after removing the ergothioneine solution and rinsing with PBS, the human keratinocytes are placed in contact for 30 minutes with a solution of 2,7-dichlorofluorescine diacetate (320 μM in phosphate-buffered saline PBS) at a rate of 500 μl per well, and are then rinsed again with PBS. The cells are then exposed to ozone: after placing the cells in contact with a fresh solution of ergothioneine in PBS at a concentration of 1 mM, at a rate of 100 μl per well, the cells are exposed to ozone in an incubator (37° C., humid atmosphere) with an ozone concentration of 10 ppm. The effects induced by the ozone are then measured by measuring the appearance of 2,7-dichloroflorescine (DCF: excitation at 485 nm and emission at 530 nm) after different exposure times: 0, 5, 10 and 20 minutes. Four independent experiments were performed and each measurement was repeated six times. The appearance of ozone-generated peroxides in the cell is reflected by an increase in the fluorescence. For each time, the fluorescence values of the unprotected controls are set at 100%. The results, in the presence of ergothioneine, are then expressed relative to this control value. A reduction in this value indicates a protective effect of the extract.
smiles,measurement,setting,value
C[N+](C)(C)[C@@H](Cc1c[nH]c(=S)[nH]1)C(=O)[O-] [ergothioneine],"% fluorescence observed ±SEM, expressed as % relative to the unprotected controls",5 min. of contact with ozone 10 ppm,18.9 ± 2.4%
same,drop in induced stress,5 minutes of exposure to ozone 10 ppm,81.1%
same,"% fluorescence observed ±SEM, expressed as % relative to the unprotected controls",10 min. of contact with ozone 10 ppm,25.9 ± 3.8%
same,drop in induced stress,10 minutes of exposure to ozone 10 ppm,74.1%
same,"% fluorescence observed ±SEM, expressed as % relative to the unprotected controls",20 min. of contact with ozone 10 ppm,51.4 ± 10.2%
same,drop in induced stress,20 minutes of exposure to ozone 10 ppm,48.6%
